Patent publication US11945973B2, “Ionic liquid-based coating and method of making articles coated with the same” (THE HONG KONG UNIVERSITY OF SCIENCE AND TECHNOLOGY, priority 2019, dated 2024)

Key:
[1] = tested on: A549 lung epithelial cells
Method: A549 lung epithelial cells were grown in 25 cm^2 flasks with Dulbecco's modified Eagle's medium (DMEM) supplemented with 10% fetal bovine serum, 100 U/ml streptomycin, and 50 U/ml penicillin at 37° C. in a humidified atmosphere with 5% CO2. A subculture of confluent monolayers was carried out using 0.05% trypsin, 0.53 mmol/l ethylenediaminetetraacetic acid in calcium and magnesium-free Hanks balanced salt solution (HBSS). […] For the 3-(4,5-dimethylthiazol-2-yl)-2,5-diphenyltetrazolium bromide (MTT) assay, cells were plated in 96-well microplates at 2×10^5 cell/well for 6 hours, then the media were gently changed to remove non-adherent cells. The plates were used for assays after 24 hours. […] The media were replaced with 100 μl of dimethyl sulfoxide for 20 minutes, and the absorbances at 595 nm were determined using a microplate reader. […] The inhibition rate, I, is given by [formula] where C is the absorbance of the control group containing the cell solution and MTT, which indicates the number of maximum living cells, S is the absorbance of the sample group containing the cell solution, ionic liquids and MTT, which indicates the number of living cells in the ionic liquids, and B is the absorbance of the blank group containing only pure culture media and MTT, which is set reduce interference by the natural environment.

E. coli = assay: Inhibition zone on agar plates; format: cell-based; settings: liquid applied to agar plate
Method: A bacterial suspension (0.1 ml) was spread onto tryptone soya agar plates. HEPA filters with ionic liquid coatings were cut into small pieces. They were then placed on the center of plates spread by bacteria. The plates were incubated at room temperature for 48 hours.

| Structure (SMILES) | cytotoxicity (inhibition rate) for A549 lung epithelial cells [1] | inhibition zone for E. coli (E. coli) |
| --- | --- | --- |
| CCn1cc[n+](C)c1.F[B-](F)(F)F [EMIM-BF4, 1-ethyl-3-methylimidazolium tetrafluoroborate] | lowest cytotoxicity | obvious inhibition |
| CCO [ethanol, reference compound] | – | no clear inhibition zones |
